One block for each compound: values may come before it.
Experiments:
mKCC4 = molecular target: T1, mKCC4 (Mus musculus, UniProt Q9WVL3); assay: 86Rb+ uptake (K+-Cl- cotransport) in Xenopus oocytes injected with mKCC4 cRNA; format: cell-based; settings: 10 mM potassium salt of anion substitute vs 10 mM KCl reference; hypotonic
T1 construct: a full-length mKCC4 cDNA was used as a standard in the Xenopus expression vector pGEMHE; expressed in transfected cells; host or cells: Xenopus laevis oocytes injected with cRNA (pGEMHE, T7 transcript)
T1 sequence (Q9WVL3 1-1083 L71X/L155X/L467X/L586X/L639X/L1023X): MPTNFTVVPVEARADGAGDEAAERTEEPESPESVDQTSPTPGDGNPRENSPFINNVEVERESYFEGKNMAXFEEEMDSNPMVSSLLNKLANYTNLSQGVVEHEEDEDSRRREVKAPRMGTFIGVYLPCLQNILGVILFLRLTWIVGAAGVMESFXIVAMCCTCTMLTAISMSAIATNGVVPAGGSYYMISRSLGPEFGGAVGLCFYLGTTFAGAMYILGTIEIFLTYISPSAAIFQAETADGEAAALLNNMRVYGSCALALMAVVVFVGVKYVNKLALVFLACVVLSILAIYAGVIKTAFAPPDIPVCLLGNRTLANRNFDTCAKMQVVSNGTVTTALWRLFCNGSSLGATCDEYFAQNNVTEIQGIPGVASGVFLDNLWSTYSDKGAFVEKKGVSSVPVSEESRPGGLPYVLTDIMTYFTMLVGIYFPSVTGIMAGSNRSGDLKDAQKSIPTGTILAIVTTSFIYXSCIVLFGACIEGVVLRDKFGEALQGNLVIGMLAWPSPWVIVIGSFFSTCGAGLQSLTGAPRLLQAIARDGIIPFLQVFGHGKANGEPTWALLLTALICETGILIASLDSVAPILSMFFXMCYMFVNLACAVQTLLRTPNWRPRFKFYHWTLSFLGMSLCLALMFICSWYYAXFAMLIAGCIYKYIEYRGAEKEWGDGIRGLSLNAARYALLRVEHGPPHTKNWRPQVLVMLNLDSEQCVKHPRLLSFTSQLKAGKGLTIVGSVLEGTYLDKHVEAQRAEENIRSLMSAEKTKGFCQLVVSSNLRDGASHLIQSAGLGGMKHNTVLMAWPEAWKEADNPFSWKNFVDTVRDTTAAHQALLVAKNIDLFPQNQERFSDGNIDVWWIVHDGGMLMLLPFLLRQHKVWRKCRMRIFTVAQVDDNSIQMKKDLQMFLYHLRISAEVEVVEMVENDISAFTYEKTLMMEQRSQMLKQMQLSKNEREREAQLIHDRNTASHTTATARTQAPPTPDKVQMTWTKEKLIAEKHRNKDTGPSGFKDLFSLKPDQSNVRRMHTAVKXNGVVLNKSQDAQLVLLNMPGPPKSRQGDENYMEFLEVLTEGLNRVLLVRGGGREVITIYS
Procedure: Oocytes were surgically collected from anesthetized female Xenopus adults under 0.17% tricaine and incubated for 1 hour with vigorous shaking in frog Ringer ND96 (96 mM sodium chloride, 2 mM potassium chloride, 1.8 mM calcium chloride, 1.0 mM magnesium chloride, and 5 mM Hepes/Tris, pH 7.4) in the presence of 2 mg/ml collagenase B. Oocytes were then washed four times in ND96, manually defolliculated, and incubated overnight in ND96 at 18° C. On the next day, defolliculated stage V–VI oocytes were injected with 50 nl of water or a solution containing cRNA at a concentration of 0.25–0.5 μg/μl (25 ng/oocyte). Oocytes were incubated at 17–18° C. in ND96 (96 mM sodium chloride, 2 mM potassium chloride, 1.8 mM calcium chloride, 1.0 mM magnesium chloride, and 5 mM Hepes/Tris, pH 7.4), supplemented with 2.5 mM sodium pyruvate and 5 mg/100 ml gentamicin, for 3–4 days. The incubation medium was changed every 24 hours. On the day of the experiment, oocytes were switched to Cl^−-free ND96 (96 mM Na^+ Na^+ isethionate, 2 mM K^+ gluconate, 6 mM Ca^2+ gluconate, 1 mM Mg^2+ gluconate, 5 mM Hepes, 2.5 mM sodium pyruvate, 5 mg/100 ml gentamicin, pH 7.4) for 2 hours prior to the uptake assay.
For functional expression and in vitro translation, a full-length mKCC4 cDNA was used as a standard in the Xenopus expression vector pGEMHE (Liman et al. (1992) Neuron 9:861–871). The resulting construct contains nucleotides 55–3812 of mKCC4 (SEQ ID NO:13). For functional comparison with mKCC4, a full-length rabbit KCC1 cDNA was subcloned into pGEMHE. […] […] Transcription product integrity was confirmed on agarose gels, and concentration was determined by absorbance reading at 260 nm (DU 640 available from Beckman of Fullerton, Calif.).
K^+—Cl^− cotransport was assessed by measuring tracer ^86Rb^+ uptake (NEN® Life Science Products of Boston, Mass.) in experimental groups of at least 15 oocytes. […] All uptake solutions also contained 1.8 mM CaCl2, 1 mM MgCl2, 5 mM Hepes, pH 7.4, and were supplemented with 1 mM ouabain and […] ^86Rb^+. Isotonic conditions were generated by supplementing the same solutions with 3.5 g/100 ml sucrose to reach isosmolar conditions for oocytes (˜210 mOsm/kg). Ouabain was added to prevent ^86Rb^+ uptake via the Na^+—K^+-ATPase. The absence of extracellular Na^+ and the hypotonicity of the uptake medium prevented ^86Rb^+ uptake via the endogenous Na^+—K^+-2Cl^− cotransporter that is present in oocytes (Gamba et al. (1994) J Biol Chem 269:17713–17722).
All uptake assays were performed at 32° C. At the end of the uptake period, oocytes were washed five times in ice-cold uptake solution without isotope to remove extracellular fluid tracer. Oocytes were dissolved in 10% SDS, and tracer activity was determined for each oocyte by β-scintillation counting.
To determine the ion transport kinetics of KCC4 and KCC1, ^86Rb^+ uptake experiments were performed in variable concentrations of K^+ and Cl^−. […]

[1] = system: human red cell K^+—Cl^− cotransport; settings: ML-7; physiological osmolality; cited from earlier work
hKCC3a = molecular target: T2, hKCC3a (Homo sapiens, UniProt Q9UHW9, L346X/L35X/L789X); assay: 86Rb+ uptake (K+-Cl- cotransport) in Xenopus oocytes injected with hKCC3a cRNA; format: cell-based
T2 construct: A full-length hKCC3a construct has also been generated for functional expression; expressed in transfected cells; host or cells: Xenopus laevis oocytes injected with cRNA
T2 sequence (Q9UHW9 1-1150 L35X/L346X/L789X): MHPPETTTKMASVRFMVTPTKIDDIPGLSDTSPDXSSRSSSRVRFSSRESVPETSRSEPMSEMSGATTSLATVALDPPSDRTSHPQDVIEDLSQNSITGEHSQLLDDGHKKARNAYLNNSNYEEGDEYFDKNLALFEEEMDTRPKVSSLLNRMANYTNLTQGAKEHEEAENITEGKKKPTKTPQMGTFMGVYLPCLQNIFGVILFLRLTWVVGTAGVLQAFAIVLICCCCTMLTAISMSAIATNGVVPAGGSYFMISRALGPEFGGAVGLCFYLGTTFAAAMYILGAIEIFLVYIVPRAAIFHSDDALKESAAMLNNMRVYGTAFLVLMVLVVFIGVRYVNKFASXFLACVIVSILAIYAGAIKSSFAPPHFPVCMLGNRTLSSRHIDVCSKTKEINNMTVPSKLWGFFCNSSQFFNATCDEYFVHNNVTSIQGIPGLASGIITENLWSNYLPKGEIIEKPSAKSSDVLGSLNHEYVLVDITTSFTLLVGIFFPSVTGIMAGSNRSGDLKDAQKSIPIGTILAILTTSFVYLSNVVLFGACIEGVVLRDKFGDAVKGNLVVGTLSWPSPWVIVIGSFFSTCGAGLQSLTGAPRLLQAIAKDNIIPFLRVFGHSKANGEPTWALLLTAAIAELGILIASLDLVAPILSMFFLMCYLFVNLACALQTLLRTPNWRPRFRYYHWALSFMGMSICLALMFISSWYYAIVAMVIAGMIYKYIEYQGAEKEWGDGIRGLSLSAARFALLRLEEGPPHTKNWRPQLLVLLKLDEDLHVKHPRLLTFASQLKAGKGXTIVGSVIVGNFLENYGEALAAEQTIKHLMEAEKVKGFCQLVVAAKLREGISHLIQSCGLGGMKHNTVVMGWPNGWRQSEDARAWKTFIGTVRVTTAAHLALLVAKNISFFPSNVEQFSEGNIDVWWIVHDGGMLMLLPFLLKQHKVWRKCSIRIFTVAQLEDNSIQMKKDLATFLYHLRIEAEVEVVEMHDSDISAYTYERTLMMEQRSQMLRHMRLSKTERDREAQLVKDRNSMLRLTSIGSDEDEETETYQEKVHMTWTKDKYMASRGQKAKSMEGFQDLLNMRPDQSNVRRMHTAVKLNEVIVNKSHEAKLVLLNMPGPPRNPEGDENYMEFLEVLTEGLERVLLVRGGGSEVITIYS

[2] = system: KCC2^+/− heterozygous and wild type mice; assay: PTZ seizure induction in wild type and KCC2+/- mice; format: in vivo, mouse; settings: daily 60 mg/kg PTZ
Procedure: A reduced threshold for induction of seizure activity was also observed in KCC2^+/− heterozygous mice. Seizures were induced in wild type and litter-matched KCC2^+/− mice by daily injections of 60 mg/kg pentylenetetrazole (PTZ), a blocker of the GABAA receptor. Animal behavior was observed during a one-hour interval following PTZ injection, and the severity of seizure induction was scored according to the following indicators: score=0, absence of seizure acitivity; score=1, ear and facial twitching; score=2, myoclonic body jerks; score=3, clonic forelimb convulsions […]; score=5, death. Mice assigned a score of 3, 4, or 5 were removed from the group. FIG. 34 summarizes the number of mice assigned a score of 1 or 2 as a function of time. A significant difference between wild type and KCC2^+/− heterozygous mice was observed, corresponding to an approximately 2-fold increase in the susceptibility of KCC2^+/− heterozygous mice to seizure activity.

SMILES: N#C[S-].[K+] [KSCN]
86Rb+ influx in the presence of other anions, percentage of KCC4 function (mKCC4): did not support transport

SMILES: C1CCc2nnnn2CC1 [PTZ, pentylenetetrazole]
percentage of deaths in response to PTZ injection ([2]; KCC2+/− heterozygous mice): Approximately 35%
percentage of deaths in response to PTZ injection ([2]; wild type mice): < 5%

SMILES: O=C([O-])[C@H](O)[C@@H](O)[C@H](O)[C@H](O)CO.[K+] [potassium gluconate]
86Rb+ influx in the presence of other anions, percentage of KCC4 function (mKCC4): did not support transport

More lines, main results first:

86Rb+ influx in the presence of other anions, percentage of KCC4 function (mKCC4): 17±3.8%
SMILES: [I-].[K+] [KI]

86Rb+ influx in the presence of other anions, percentage of KCC4 function (mKCC4): 58±9%
SMILES: [Br-].[K+] [KBr]

86Rb+ influx in the presence of other anions, percentage of KCC4 function (mKCC4): 22±5.9%
SMILES: O=P([O-])(O)O.[K+] [KH2PO4]

K+-Cl- cotransport (86Rb+ uptake) by KCC3a in the presence of ML-7 (hKCC3a; 100 μM ML-7, 160 mOsm/kg): 1698±298 pmol/oocyte/hour
effect on hKCC3a K+-Cl- cotransport (hKCC3a; ML-7, 180 mOsm/kg): modest activation
effect on K+-Cl- cotransport (hKCC3a; ML-7, isotonic conditions): no effect
SMILES: O=S(=O)(c1cccc2c(I)cccc12)N1CCCNCC1 [ML-7]
effect on human red cell K+-Cl- cotransport [1]: modest activation

Reference: patent US7183075B2, “Purified and isolated potassium-chloride cotransporter nucleic acids and polypeptides and therapeutic and screening methods using same” (Vanderbilt University, priority 2000, dated 2007)
